Measurements from US9630977B2, “Cephalosporin derivatives and pharmaceutical compositions thereof” (Legochem Biosciences, Inc., priority 2011, dated 2017).

How the values were obtained:
[1] = system: P. aeruginosa R1023; experiment: In vivo efficacy, whole-body infected mouse model, Ceftazidime-resistant bacteria;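 as to Survival rate: each column one dose of 5 10 20 or 40 mg/kg given sc at 1 h and 4 h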; set-up: species or system ICR mouse; conditions: for Survival rate: subcutaneous 1 h and 4 h after infection, P. aeruginosa R1023 (2 × 10^6 CFU/mouse), four days
Description: (§1) Pharmaceutical efficacy of the cephalosporin derivative compounds according to the present invention was evaluated in a whole-body infected mouse model. Tables 3 and 4 show survival rate and ED50 values for the two compounds with excellent antibacterial activity with regard to an infected mouse by a drug-sensitive bacteria and a drug-resistant bacteria.
(§2) Test animals: 3 week old male ICR mouse, weight 18˜22 g; 5 mice/group.
(§3) Lab conditions: Temperature of 23±2° C.; humidity of 55±20%.
(§4) Administration method: Inducing whole-body infection by bacterial solution followed by subcutaneous injection (0.2 mL) after 1 hour and 4 hours.
(§5) Test method: Cultured bacteria were diluted with 0.9% NaCl to prepare a bacterial solution having a concentration that is 5 to 10 times of […]. 0.5 mL of bacterial solution was injected through abdominal cavity to induce whole-body infection. Test compounds were administered in four different amounts, which were designed considering in vitro MIC values of the test bacteria. After 1 hour and 4 hours, the four different amounts of the test compounds were subcutaneously administered. Survival rates were measured for four days and ED50 values were calculated according to the Probit method.

[2] = system: P. aeruginosa 1912E; experiment: In vivo efficacy, whole-body infected mouse model, Ceftazidime-sensitive bacteria; set-up: species or system ICR mouse; conditions: P. aeruginosa 1912E (2 × 10^6CFU/mouse); for Survival rate: four days
Description: as §1, §2, §3, §4, §5

SMILES | ED50 ([1]; Pseudomonas aeruginosa, sc, Probit method, subcutaneous, mouse infected by Ceftazidime-resistant P. aeruginosa R1023) [mg/kg] | Survival rate ([1]; administered amount 5 mg/kg) [%] | Survival rate ([1]; administered amount 10 mg/kg) [%] | Survival rate ([1]; administered amount 20 mg/kg) [%] | Survival rate ([1]; administered amount 40 mg/kg) [%] | pharmaceutical efficacy (in words) ([1]; whole-body infected mice by the drug-resistant bacteria) | Survival rate ([2]; 2.5 mg/kg subcutaneous after 1 hour and 4 hours) [%] | Survival rate ([2]; 5 mg/kg subcutaneous after 1 hour and 4 hours) [%] | Survival rate ([2]; 10 mg/kg subcutaneous after 1 hour and 4 hours) [%] | Survival rate ([2]; 20 mg/kg subcutaneous after 1 hour and 4 hours) [%] | ED50 ([2]; Pseudomonas aeruginosa, sc, subcutaneous, Probit method) [mg/kg]
C[C@H](O/N=C(\C(=O)N[C@@H]1C(=O)N2C(C(=O)[O-])=C(C[n+]3cnc(N)c(NCCNC(=O)c4cc(=O)c(O)cn4O)c3)CSC12)c1nc(N)sc1Cl)C(=O)O (some centres unmarked) [Compound 4] | 10 | 40 | 40 | 80 | 100 | much greater than that of Ceftazidime | – | – | – | – | –
CC(C)(O/N=C(\C(=O)N[C@@H]1C(=O)N2C(C(=O)[O-])=C(/C=C/C[n+]3cnc(N)c(NCCNC(=O)c4cc(=O)c(O)cn4O)c3)CSC12)c1csc(N)n1)C(=O)O (some centres unmarked) [Compound 8] | – | – | – | – | – | – | 60 | 80 | 100 | 100 | 1.25
